Earlier results as cited in patent publication US6451782B1, “Use of 4-androstene-3alpha,17 beta-diol to increase testosterone levels in humans” (priority 2002, dated 2002).
Read-outs that look alike come from different tables or passages of the source.

Columns and labels:
[1] = in-vitro, chicken liver preparations
[2] = humans, intravenous, radio-labeled, urinary metabolites
[3] = humans
[4] = in-vitro, rat liver preparations

Row | SMILES | identified metabolites [1] | metabolic relationship to testosterone [2] | time to peak concentration of active hormone (testosterone) ([3]; after administration of the precursor) [min] | period over which testosterone concentrations subsequently decline ([3]; after the peak) | identified metabolites [4] | pathway of metabolism to androstane metabolites [2]
1 | C[C@]12CC[C@H]3[C@@H](CCC4=CC(O)CC[C@@]43C)[C@@H]1CC[C@@H]2O (stereo partly drawn) [4-androstene-3,17beta-diol] | androstenedione, epitestosterone and testosterone | direct precursor relationship to testosterone | ≤ 90 | three to four | androstenedione, epitestosterone and testosterone | 
2 | C[C@]12CC[C@H]3[C@@H](CCC4=C[C@H](O)CC[C@@]43C)[C@@H]1CC[C@@H]2O [4-androstene-3alpha, 17beta-diol] | androstenedione, epitestosterone and testosterone | direct precursor relationship to testosterone |  |  | androstenedione, epitestosterone and testosterone | involved first its conversion to a 3-keto steroid
